Organism: Rattus norvegicus
Experiment: Open TG-GATES - Regimen: Daily Repeat
Assay type: toxicity, organism-based, Sprague-Dawley
Design: regimen Daily Repeat, gender Male, age 6 weeks
Conditions: in vivo, po, route gavage; for IP / K / LDH / Na / PL / RALB / TBIL / TC / TG / TP / gamma-GTP / A/G / ALP / ALT / AST / BUN / CRE / Ca / Cl / DBIL / GLC: tissue Plasma; for APTT / Bas / Eos / Fbg / Hb / Ht / Lym / MCH / MCHC / MCV / Mono / Neu / PT / Plat / RBC / Ret / WBC: tissue Blood; for KIDNEY_L / KIDNEY_R / KIDNEY_TOTAL: tissue Kidney; for LIVER: tissue Liver
[1] = 0 mg/kg, […], dose level Control, time 28 day
[2] = 3 mg/kg, 72 h, dose level Low, time 3 day
[3] = 3 mg/kg, […], dose level Low, time 7 day
[4] = 3 mg/kg, […], dose level Low, time 14 day
[5] = 3 mg/kg, […], dose level Low, time 28 day

SMILES: CCN(CC)N=O [N-NITROSODIETHYLAMINE]
- IP [1]: 6.9 mg/dL
- K [1]: 3.7 meq/L
- LDH [1]: 203 IU/L
- Na [1]: 141 meq/L
- PL [1]: 135.2 mg/dL
- RALB [1]: 3.5 g/dL
- TBIL [1]: 0.2 mg/dL
- TC [1]: 72.4 mg/dL
- TG [1]: 104 mg/dL
- TP [1]: 6.1 g/dL
- gamma-GTP [1]: 1.2 IU/L
- TERMINAL_BW [2]: 235.3 g
- APTT [2]: 18.7 s
- Bas [2]: 0.2%
- Eos [2]: 1%
- Fbg [2]: 224.6 mg/dL
- Hb [2]: 13.3 g/dL
- Ht [2]: 38.4%
- Lym [2]: 82%
- MCH [2]: 21.3 pg
- MCHC [2]: 34.7%
- MCV [2]: 61.5 fL
- Mono [2]: 2%
- Neu [2]: 14.2%
- PT [2]: 11.7 s
- Plat [2]: 134.1 x10_4/uL
- RBC [2]: 624.4 x10_4/ul
- Ret [2]: 5.5%
- WBC [2]: 68.1 x10_2/uL
- KIDNEY_L [2]: 1.1 g
- KIDNEY_R [2]: 1.1 g
- KIDNEY_TOTAL [2]: 2.1 g
- LIVER [2]: 10.5 g
- A/G [2]: 1.5
- ALP [2]: 1018.6 IU/L
- ALT [2]: 33 IU/L
- AST [2]: 65.8 IU/L
- BUN [2]: 14.2 mg/dL
- CRE [2]: 0.4 mg/dL
- Ca [2]: 10.8 mg/dL
- Cl [2]: 102.6 meq/L
- DBIL [2]: 0.094 mg/dL
- GLC [2]: 204.6 mg/dL
- IP [2]: 8.5 mg/dL
- K [2]: 4.3 meq/L
- LDH [2]: 217.4 IU/L
- Na [2]: 140.6 meq/L
- PL [2]: 142.4 mg/dL
- RALB [2]: 3.3 g/dL
- TBIL [2]: 0.1 mg/dL
- TC [2]: 72.4 mg/dL
- TG [2]: 114.4 mg/dL
- TP [2]: 5.5 g/dL
- gamma-GTP [2]: 1.4 IU/L
- TERMINAL_BW [3]: 272 g
- TERMINAL_BW [4]: 323.6 g
- TERMINAL_BW [5]: 391.5 g
- APTT [3]: 20.6 s
- Bas [3]: 0%
- Eos [3]: 1%
- Fbg [3]: 219.2 mg/dL
- Hb [3]: 14 g/dL
- Ht [3]: 40%
- Lym [3]: 78.2%
- MCH [3]: 21.1 pg
- MCHC [3]: 34.8%
- MCV [3]: 60.7 fL
- Mono [3]: 3%
- Neu [3]: 17.2%
- PT [3]: 11.9 s
- Plat [3]: 142 x10_4/uL
- RBC [3]: 659.8 x10_4/ul
- Ret [3]: 4.8%
- WBC [3]: 96.9 x10_2/uL
- APTT [4]: 19.8 s
- Bas [4]: 0.8%
- Eos [4]: 1%
- Fbg [4]: 213.2 mg/dL
- Hb [4]: 14.4 g/dL
- Ht [4]: 41.3%
- Lym [4]: 78.4%
- MCH [4]: 20.8 pg
- MCHC [4]: 34.9%
- MCV [4]: 59.5 fL
- Mono [4]: 2%
- Neu [4]: 17.4%
- PT [4]: 12 s
- Plat [4]: 139.4 x10_4/uL
- RBC [4]: 695.4 x10_4/ul
- Ret [4]: 4.1%
- WBC [4]: 103.2 x10_2/uL
- APTT [5]: 19.1 s
- Bas [5]: 0.6%
- Eos [5]: 1.2%
- Fbg [5]: 215.6 mg/dL
- Hb [5]: 15.4 g/dL
- Ht [5]: 42.5%
- Lym [5]: 80.4%
- MCH [5]: 20.3 pg
- MCHC [5]: 36.3%
- MCV [5]: 55.9 fL
- Mono [5]: 2.4%
- Neu [5]: 15%
- PT [5]: 11.7 s
- Plat [5]: 124.2 x10_4/uL
- RBC [5]: 759.6 x10_4/ul
- Ret [5]: 2.9%
- WBC [5]: 104.7 x10_2/uL
- KIDNEY_L [3]: 1.2 g
- KIDNEY_R [3]: 1.2 g
- KIDNEY_TOTAL [3]: 2.3 g
- KIDNEY_L [4]: 1.3 g
- KIDNEY_R [4]: 1.2 g
- KIDNEY_TOTAL [4]: 2.5 g
- KIDNEY_L [5]: 1.3 g
- KIDNEY_R [5]: 1.3 g
- KIDNEY_TOTAL [5]: 2.7 g
- LIVER [3]: 12 g
- LIVER [4]: 13 g
- LIVER [5]: 14 g
- A/G [3]: 1.6
- ALP [3]: 847.6 IU/L
- ALT [3]: 31.2 IU/L
- AST [3]: 67.2 IU/L
- BUN [3]: 15.4 mg/dL
- CRE [3]: 0.4 mg/dL
- Ca [3]: 10.6 mg/dL
- Cl [3]: 103.4 meq/L
- DBIL [3]: 0.1 mg/dL
- GLC [3]: 191.6 mg/dL
- IP [3]: 8.2 mg/dL
- K [3]: 4.4 meq/L
- LDH [3]: 214.2 IU/L
- Na [3]: 140.4 meq/L
- PL [3]: 131.6 mg/dL
- RALB [3]: 3.4 g/dL
- TBIL [3]: 0.2 mg/dL
- TC [3]: 66.8 mg/dL
- TG [3]: 122.2 mg/dL
- TP [3]: 5.5 g/dL
- gamma-GTP [3]: 1 IU/L
- A/G [4]: 1.4
- ALP [4]: 752 IU/L
- ALT [4]: 36 IU/L
- AST [4]: 68.6 IU/L
- BUN [4]: 15.2 mg/dL
- CRE [4]: 0.4 mg/dL
- Ca [4]: 10.6 mg/dL
- Cl [4]: 102 meq/L
- DBIL [4]: 0.096 mg/dL
- GLC [4]: 192.2 mg/dL
- IP [4]: 7.7 mg/dL
- K [4]: 3.9 meq/L
- LDH [4]: 190.2 IU/L
- Na [4]: 141.2 meq/L
- PL [4]: 129.4 mg/dL
- RALB [4]: 3.4 g/dL
- TBIL [4]: 0.2 mg/dL
- TC [4]: 68.8 mg/dL
- TG [4]: 79.4 mg/dL
- TP [4]: 5.8 g/dL
